Results as given in US6107489A, “Extended lifetimes in vivo renin inhibitors” (ConjuChem, Inc., priority 1999, dated 2000).
pIC50: −log10 of the molar value. Where two headings read alike, the source gives them in different places.

Experiments:
[1] = tested on: renin; type: in vivo, rabbit; details: for Corrected % Inhibition: normalized for dilution
Method: Materials and Methods: The following procedures were done under sterile conditions. Rabbit plasma was obtained from freshly drawn heparinized blood. One 8 mL aliquot of plasma was incubated with 5 micromoles of YS-004-69 (15) (the NHS ester; "NHS-RI") for 60 minutes at room temperature. Another equal aliquot was similarly incubated with 5 micromoles of YS-004-65 (free acid; "Free RI"). The reaction mixtures were stored at 4° C. overnight. Aliquots of these samples were saved for analysis of total renin inhibitor content by a standard renin radioimmunoassay (RIA). After warming to 37° C., the plasma samples were injected into two autologous rabbits. The rabbits were then bled at defined intervals. The blood was centrifuged for 5 minutes at 2500 rpm and then aliquots of the plasma were analyzed by RIA. Results: Plasma proteins derivatized with the NHS ester of the renin inhibitor did indeed maintain the inhibitor in a conformation which remained bioavailable and inhibitory after an extended period of circulation in the blood. […] Again, the amount of inhibitor detectable has been normalized for the effect of dilution of the plasma by the volume of blood in circulation. "ND" means this measurement was not determined.

[2] = target: T1, renin (Homo sapiens, UniProt P00797); test: renin inhibition IC50; type: biochemical
T1 sequence (P00797 67-406): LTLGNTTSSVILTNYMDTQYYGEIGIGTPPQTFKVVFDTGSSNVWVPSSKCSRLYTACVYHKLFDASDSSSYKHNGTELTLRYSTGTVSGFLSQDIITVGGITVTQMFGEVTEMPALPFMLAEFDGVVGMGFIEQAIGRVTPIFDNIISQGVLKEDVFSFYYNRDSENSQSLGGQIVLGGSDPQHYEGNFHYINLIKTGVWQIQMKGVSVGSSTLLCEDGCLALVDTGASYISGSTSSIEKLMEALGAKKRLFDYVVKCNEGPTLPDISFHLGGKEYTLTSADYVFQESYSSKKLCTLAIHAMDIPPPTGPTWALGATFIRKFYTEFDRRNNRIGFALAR

| Compound | Crude % Inhibition ([1]; 10 min after injection) [%] | Corrected % Inhibition ([1]; 10 min after injection) [%] | Crude % Inhibition ([1]; 30 min after injection) [%] | Corrected % Inhibition ([1]; 30 min after injection) [%] | Crude % Inhibition ([1]; 1 hour after injection) [%] | Corrected % Inhibition ([1]; 1 hour after injection) [%] | Crude % Inhibition ([1]; 4 hours after injection) [%] | Corrected % Inhibition ([1]; 4 hours after injection) [%] | Crude % Inhibition ([1]; 6 hours after injection) [%] | Corrected % Inhibition ([1]; 6 hours after injection) [%] | Crude % Inhibition ([1]; 8 hours after injection) [%] | Corrected % Inhibition ([1]; 8 hours after injection) [%] | Crude % Inhibition ([1]; 1 day after injection) [%] | Corrected % Inhibition ([1]; 1 day after injection) [%] | Crude % Inhibition ([1]; 2 days after injection) [%] | Corrected % Inhibition ([1]; 2 days after injection) [%] | Crude % Inhibition ([1]; 3 days after injection) [%] | Corrected % Inhibition ([1]; 3 days after injection) [%] | Corrected % Inhibition ([1]; 6 days after injection) [%] | Crude % Inhibition ([1]; 10 days after injection) [%] | also measured |
| --- | --- | --- | --- | --- | --- | --- | --- | --- | --- | --- | --- | --- | --- | --- | --- | --- | --- | --- | --- | --- | --- |
| Boc-Phe-His-ACHPA-IIe-6-AC-NHS [YS-004-69] | 97.70 | 100.00 | 87.40 | 89.46 | 85.90 | 87.92 | 87.40 | 99.69 | 88.20 | 100.51 | 70.50 | 72.16 | 75.10 | 76.87 | 68.10 | 69.70 | 75.80 | 77.38 | 56.60 | 41.20 | Crude % Inhibition ([1]; 6 days after injection): 55.30%; Corrected % Inhibition ([1]; 10 days after injection): 42.17% |
| CC[C@H](C)[C@H](NC(=O)C[C@H](O)[C@H](CC1CCCCC1)NC(=O)[C@H](Cc1c[nH]cn1)NC(=O)[C@H](Cc1ccccc1)NC(=O)OC(C)(C)C)C(=O)NCCCCCC(=O)O [YS-004-65, Boc-Phe-His-ACHPA-IIe-6-AC-OH] | 89.40 | 100.00 | 20.60 | 23.04 | -2.80 | -3.13 | -5.20 | -5.82 | -0.40 | -0.45 | -2.90 | -3.24 | -5.20 | -5.82 | -3.20 | -3.58 | 1.40 | 1.57 | 0.00 | -6.60 | Corrected % Inhibition ([1]; 10 days after injection): -7.38%; level of renin inhibitor / inhibition in plasma over time ([1]; rabbit, in vivo): not detectable after one hour; pIC50 [2]: 7.30 |
| CC[C@H](C)CNC(=O)C[C@H](O)[C@H](CC1CCCCC1)NC(=O)[C@H](Cc1c[nH]cn1)NC(=O)[C@H](Cc1ccccc1)NC(=O)OC(C)(C)C [parent renin inhibitor, reference compound] |  |  |  |  |  |  |  |  |  |  |  |  |  |  |  |  |  |  |  |  | pIC50 [2]: 7.72 to 8.40 |
